According to article PMC5844530, “Fosmetpantotenate (RE-024), a phosphopantothenate replacement therapy for pantothenate kinase-associated neurodegeneration: Mechanism of action and efficacy in nonclinical models” (PLoS ONE, 2018):
Values joined by “and” are separate entries in the source; they are usually repeats but may differ in a detail not shown here. Identical values can stand only once. Each block holds one molecule with its values, some of them ahead of it.

What was measured:
[1] = Pharmacokinetics in whole blood, CD-1 mice; settings: for % Parent AUCAll: CD1 mouse, metabolite AUCall/Parent AUCall x 100; for Whole Blood Conc. of compound 3: CD-1 mice; for concentration at 2 h / concentration at 8 h / concentration at 0.5 h: male, CD-1, mouse, whole blood, po, Whole Blood Conc. of compound 3, CD-1 mice
[2] = Pharmacokinetics in whole blood, cynomolgus monkeys; settings: for % Parent AUCAll: Cynomolgus monkey, 300 mg/kg PO, metabolite AUCall/Parent AUCall x 100
Protocol: The whole blood samples (0.5 mL) were collected into syringes that were prefilled with 2.5 mL of ice-cold 0.1% formic acid in acetonitrile. The volume ratio of the whole blood to 0.1% formic acid in acetonitrile was 1/5 (v/v). Samples were frozen (-70°C) until analyzed by LC-MS/MS.
Standard curves and quality control (QC) samples were prepared fresh on the day of analysis by serial dilution of the standard mixture in quenched whole blood (1 part of blood to 5 parts of 0.1% formic acid in acetonitrile) and centrifuged. […] The frozen study samples were thawed in an ice/water bath and centrifuged. Supernatant (50 μL) from standards, QC samples, and study samples was transferred to a 96-well plate and dried completely under nitrogen. The dried residues were reconstituted with 100 μL of 0.1% formic acid in water containing internal standard (5 ng/mL of ^15N/^13C3-RE-024-02) and analyzed by LC-MS/MS.
LC-MS/MS analysis for blood pharmacokinetic samples: Samples were analyzed using an Agilent 1100 binary pump (Agilent Technologies, Santa Clara, CA, USA), connected to an AB Sciex API 6500 mass spectrometer (SCIEX, Framingham, MA, USA). An electrospray ionization source was used, scanning in the positive mode. […] The chromatography column was a Varian Metasil AQ 120–5 C18 column, 5 μm, 50 x 2.00 mm (Part No. A0530050X020) at ambient temperature, with a 0.5 mL/min flow rate and a 20 μL injection volume. Mobile phase (A) consisted of 0.1% formic acid in water; while mobile phase (B) consisted of 0.1% formic acid in acetonitrile:water (9:1, v/v).
Quantitation of in vivo samples: Peak areas were integrated using Analyst software (AB Sciex, Concord, Ontario, Canada). […] Calibration standards (at a minimum 7 per curve) were fit by linear regression with (1/x^2) weighting. QC samples were used (triplicate) at 3 concentrations for all tandem mass spectrometry (MS/MS) runs.
Pharmacokinetic calculations: PK analysis was performed using Phoenix WinNonlin®, Build 6.3.0.395 (Certara, Princeton, NJ, USA) using a non-compartmental model (PO dose = model 200 for extravascular dosing). […] Post-dose concentrations below the limit of quantitation (BLQ) were omitted from calculation.

[3] = Pharmacokinetics in whole blood, Sprague-Dawley rats; settings: Sprague-Dawley rat, metabolite AUCall/Parent AUCall x 100

% Parent AUCAll ([1]; 100 mg/kg PO): 8,900%
% Parent AUCAll ([1]; 300 mg/kg PO): 18,900%
% Parent AUCAll ([1]; 700 mg/kg PO): 1,990%
Whole Blood Conc. of compound 3 ([1]; single 100 mg/kg RE-024-02 PO, 4 hr, LLOQ 6 ng/mL): BQL
Whole Blood Conc. of compound 3 ([1]; single 100 mg/kg RE-024-02 PO, 4 hr, LLOQ 21.3 nM): BQL
Whole Blood Conc. of compound 3 ([1]; single 700 mg/kg RE-024-02 PO, 0.5 hr, LLOQ 6 ng/mL, 700 mg/kg): 126 ng/mL and 156 ng/mL and 189 ng/mL
Whole Blood Conc. of compound 3 ([1]; single 700 mg/kg RE-024-02 PO, 0.5 hr, LLOQ 21.3 nM, 700 mg/kg): 448.1 nM and 554.8 nM and 672.1 nM
Whole Blood Conc. of compound 3 ([1]; single 700 mg/kg RE-024-02 PO, 2 hr, LLOQ 6 ng/mL, 700 mg/kg): 67.2 ng/mL and 69.6 ng/mL and 72 ng/mL
Whole Blood Conc. of compound 3 ([1]; single 700 mg/kg RE-024-02 PO, 2 hr, LLOQ 21.3 nM, 700 mg/kg): 239 nM and 247.5 nM and 256 nM
concentration at 2 h ([1]; 100 mg/kg, single 100 mg/kg RE-024-02 PO, 2 hr, LLOQ 6 ng/mL): 6.7 ng/mL
concentration at 2 h ([1]; 100 mg/kg, single 100 mg/kg RE-024-02 PO, 2 hr, LLOQ 21.3 nM): 23.7 nM
concentration at 8 h ([1]; 100 mg/kg, single 100 mg/kg RE-024-02 PO, LLOQ 6 ng/mL): 6.1 ng/mL
concentration at 8 h ([1]; 100 mg/kg, single 100 mg/kg RE-024-02 PO, LLOQ 21.3 nM): 21.6 nM
concentration at 8 h ([1]; 300 mg/kg, single 300 mg/kg RE-024-02 PO, LLOQ 6 ng/mL): 7.6 ng/mL
concentration at 8 h ([1]; 300 mg/kg, single 300 mg/kg RE-024-02 PO, LLOQ 21.3 nM): 26.9 nM
concentration at 0.5 h ([1]; 700 mg/kg, single 700 mg/kg RE-024-02 PO, 0.5 hr, LLOQ 6 ng/mL): 162 ng/mL
concentration at 0.5 h ([1]; 700 mg/kg, single 700 mg/kg RE-024-02 PO, 0.5 hr, LLOQ 21.3 nM): 576 nM
concentration at 2 h ([1]; 700 mg/kg, single 700 mg/kg RE-024-02 PO, 2 hr, LLOQ 6 ng/mL): 48.2 ng/mL
concentration at 2 h ([1]; 700 mg/kg, single 700 mg/kg RE-024-02 PO, 2 hr, LLOQ 21.3 nM): 172 nM
% Parent AUCAll [2]: 9%
concentration at 0.25 h ([2]; cynomolgus monkey, whole blood, po, 300 mg/kg, Concentration of compound 3 in whole blood, cynomolgus monkeys, single oral 300 mg/kg fosmetpantotenate, 0.25 hr, LLOQ 2.13 nM): 5.33 nM
concentration at 4 h ([2]; cynomolgus monkey, whole blood, po, 300 mg/kg, Concentration of compound 3 in whole blood, cynomolgus monkeys, single oral 300 mg/kg fosmetpantotenate, 4 hr, LLOQ 2.13 nM): 432 nM
concentration at 8 h ([2]; cynomolgus monkey, whole blood, po, 300 mg/kg, Concentration of compound 3 in whole blood, cynomolgus monkeys, single oral 300 mg/kg fosmetpantotenate, 8 hr, LLOQ 2.13 nM): 619 nM
Concentration of compound 3 in whole blood ([2]; cynomolgus monkeys, single oral 300 mg/kg fosmetpantotenate, 0.25 hr, LLOQ 2.13 nM, 300 mg/kg): 3.41 nM
Concentration of compound 3 in whole blood ([2]; cynomolgus monkeys, single oral 300 mg/kg fosmetpantotenate, 4 hr, LLOQ 2.13 nM, 300 mg/kg): 654.2 nM
Concentration of compound 3 in whole blood ([2]; cynomolgus monkeys, single oral 300 mg/kg fosmetpantotenate, 8 hr, LLOQ 2.13 nM, 300 mg/kg): 508.25 nM
% Parent AUCAll ([3]; 300 mg/kg PO): 4,130%
% Parent AUCAll ([3]; 700 mg/kg PO): 209%
Structure (SMILES): CC1(C)COP(=O)(O)O[C@H]1C(=O)NCCC(=O)O [Compound 3]

Structure (SMILES): COC(=O)[C@H](C)NP(=O)(OCC(C)(C)[C@@H](O)C(=O)NCCC(=O)O)Oc1ccccc1 (stereo partly shown) [Compound 4]
% Parent AUCAll ([1]; 100 mg/kg PO): 3,180%
% Parent AUCAll ([1]; 300 mg/kg PO): 12,600%
% Parent AUCAll ([1]; 700 mg/kg PO): 10,500%
% Parent AUCAll [2]: 301%
concentration at 0.083 h ([2]; cynomolgus monkey, in vivo, po, 300 mg/kg, Concentration of compound 4 in whole blood, cynomolgus monkeys, single oral 300 mg/kg fosmetpantotenate, 0.083 hr, sum of diastereomers, LLOQ 1.30 nM): 13.2 nM
concentration at 2 h ([2]; cynomolgus monkey, in vivo, po, 300 mg/kg, Concentration of compound 4 in whole blood, cynomolgus monkeys, single oral 300 mg/kg fosmetpantotenate, 2 hr, sum of diastereomers, LLOQ 1.30 nM): 5070 nM
concentration at 4 h ([2]; cynomolgus monkey, in vivo, po, 300 mg/kg, Concentration of compound 4 in whole blood, cynomolgus monkeys, single oral 300 mg/kg fosmetpantotenate, 4 hr, sum of diastereomers, LLOQ 1.30 nM): 665 nM
Concentration of compound 4 in whole blood ([2]; cynomolgus monkeys, single oral 300 mg/kg fosmetpantotenate, 0.083 hr, sum of diastereomers, LLOQ 1.30 nM, 300 mg/kg): 8.08 nM
Concentration of compound 4 in whole blood ([2]; cynomolgus monkeys, single oral 300 mg/kg fosmetpantotenate, 2 hr, sum of diastereomers, LLOQ 1.30 nM, 300 mg/kg): 5694.67 nM
Concentration of compound 4 in whole blood ([2]; cynomolgus monkeys, single oral 300 mg/kg fosmetpantotenate, 4 hr, sum of diastereomers, LLOQ 1.30 nM, 300 mg/kg): 600.1 nM
% Parent AUCAll ([3]; 300 mg/kg PO): 2,820%
% Parent AUCAll ([3]; 700 mg/kg PO): 849%
